Consider 16 compounds from patent publication US11066369B2, “N-(pyridin-2-yl)pyridine-sulfonamide derivatives and their use in the treatment of disease” (Novartis AG, priority 2016, dated 2021).

Where two headings read alike, the source gives them in different places.

One experiment addresses T1, delF508-CFTR (Homo sapiens, UniProt P13569, DEL508-508).
T1 construct: functional activity of the CFTR channel (Chloride ion transport) in patient derived primary human bronchial epithelial cells; host or cells: patient-derived primary human bronchial epithelial cells (delF508-CFTR)
The experiment in a line: Measurement of delF508-CFTR functional activity in primary human bronchial epithelial cells (HBECs) using Multi-Transepithelial Clamp Circuit (MTECC-24) assay. The following applies: primary CF HBECs; for MTECC24 CFHBEC- Amax %: test compound added 24h before assay plus potentiator, relative to reference combination (2 μM corrector + 0.5 μM potentiator); for EC50: test compound added 24h before assay, in the presence of potentiator, mean of at least two replicates, read-out: MTECC24 CFHBEC- EC50. Format: cell-based. The procedure, abridged: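 Patient-derived primary delF508-CFTR HBECs, differentiated at air-liquid interface ~2 weeks, treated basolaterally with compound for 24 h, then apical and basolateral compound in HEPES pH 7.4 assay medium. Equivalent short-circuit current (Ieq) recorded on MTECC-24 with sequential amiloride, forskolin, potentiator and INH-172; normalized to 0.1% DMSO, EC50 from curve fit.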

The target of experiment [1] is T2, horseradish peroxidase (HRP) tagged delF508-CFTR (Homo sapiens, UniProt P13569, DEL508-508).
T2 construct: expressed in transfected cells
The experiment in a line: Measurement of delF508-CFTR-HRP surface expression in CFBE41o- cells.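 As to DelF508-CFTR-HRP Amax %: percent efficacy relative to reference corrector lumacaftor.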 The following applies: for Emax: read-out: DelF508-CFTR-HRP Amax %. It is filed as cell-based. The procedure, abridged: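 CFBE41o- bronchial epithelial cells stably expressing delF508-CFTR with HRP in the fourth extracellular loop; expression induced 48h with 500 ng/mL doxycycline, then compounds added (top 10 μM, 10-point 3-fold series, ≤0.5% DMSO) for 24h at 37° C. Surface HRP measured by luminescence with cell-impermeant substrate; EC50 from logistic fit of triplicates, plate-normalized to lowest concentration; efficacy also relative to a reference corrector.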

Where [2] appears, read: delF508-CFTR-HRP surface expression, CFBE41o- cells.
The mark [3] stands for this setting: delF508-CFTR-HRP surface expression, CFBE41o- cells, read-out: DelF508-CFTR-HRP EC50.

T1 sequence (P13569 with tags, fused parts or gaps DEL508-508): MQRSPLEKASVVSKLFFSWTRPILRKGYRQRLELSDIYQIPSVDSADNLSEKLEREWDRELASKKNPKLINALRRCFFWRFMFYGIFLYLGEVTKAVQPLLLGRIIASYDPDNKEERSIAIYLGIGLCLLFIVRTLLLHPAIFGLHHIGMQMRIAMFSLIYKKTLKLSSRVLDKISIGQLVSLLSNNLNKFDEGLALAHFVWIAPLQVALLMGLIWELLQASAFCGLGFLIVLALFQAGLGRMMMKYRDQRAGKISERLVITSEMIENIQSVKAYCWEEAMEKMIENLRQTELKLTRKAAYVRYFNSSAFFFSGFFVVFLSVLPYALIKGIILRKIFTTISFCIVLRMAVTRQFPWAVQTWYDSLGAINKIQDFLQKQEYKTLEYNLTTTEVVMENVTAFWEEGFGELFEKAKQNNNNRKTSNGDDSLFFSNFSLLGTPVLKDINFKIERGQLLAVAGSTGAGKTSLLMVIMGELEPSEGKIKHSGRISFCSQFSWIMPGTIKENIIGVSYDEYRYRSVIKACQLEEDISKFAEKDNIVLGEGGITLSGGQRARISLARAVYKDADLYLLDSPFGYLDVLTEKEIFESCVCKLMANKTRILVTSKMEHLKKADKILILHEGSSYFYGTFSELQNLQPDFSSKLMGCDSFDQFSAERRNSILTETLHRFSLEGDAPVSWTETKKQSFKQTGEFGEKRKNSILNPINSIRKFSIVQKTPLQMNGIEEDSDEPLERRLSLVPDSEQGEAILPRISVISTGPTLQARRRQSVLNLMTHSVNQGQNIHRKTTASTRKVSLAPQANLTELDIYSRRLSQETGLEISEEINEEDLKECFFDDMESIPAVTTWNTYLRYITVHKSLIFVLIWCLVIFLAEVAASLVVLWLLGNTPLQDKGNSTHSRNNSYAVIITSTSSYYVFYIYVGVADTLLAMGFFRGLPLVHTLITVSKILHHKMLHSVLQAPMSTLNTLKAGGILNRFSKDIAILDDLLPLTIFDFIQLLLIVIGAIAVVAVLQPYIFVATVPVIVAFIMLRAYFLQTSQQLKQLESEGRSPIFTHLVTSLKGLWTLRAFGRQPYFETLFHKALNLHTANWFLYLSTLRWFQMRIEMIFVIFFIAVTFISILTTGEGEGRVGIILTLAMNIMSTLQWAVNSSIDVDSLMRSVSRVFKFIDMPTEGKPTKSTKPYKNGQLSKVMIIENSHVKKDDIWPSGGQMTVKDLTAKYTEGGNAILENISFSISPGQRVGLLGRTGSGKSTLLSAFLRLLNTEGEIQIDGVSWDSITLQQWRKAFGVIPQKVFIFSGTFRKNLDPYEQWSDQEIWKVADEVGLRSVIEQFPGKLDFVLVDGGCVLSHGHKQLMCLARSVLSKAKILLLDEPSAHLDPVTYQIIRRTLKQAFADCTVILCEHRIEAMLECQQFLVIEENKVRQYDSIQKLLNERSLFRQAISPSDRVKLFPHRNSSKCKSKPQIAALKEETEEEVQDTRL
T2 sequence (P13569 with tags, fused parts or gaps DEL508-508): as above

On to `O=S(=O)(Nc1ccc(C(F)(F)F)c(-c2ccccc2C(F)(F)F)n1)c1ccnc(N2CC(O)C2)c1` [Example 325, 2-(3-hydroxyazetidin-1-yl)-N-(5-(trifluoromethyl)-6-(2-(trifluoromethyl)phenyl)pyridin-2-yl)pyridine-4-sulfonamide], for which, on delF508-CFTR, the “MTECC24 CFHBEC- Amax %” value turned out to be 60.1% and the 50% effective concentration (EC50) was 15.4 nM. In addition, the Emax in experiment [1] (setting [2]) was 257%. Also, the EC50 in experiment [1] (setting [3]) was found to be 2400 nM.

For the compound `Cc1ccc(F)cc1-c1nc(NS(=O)(=O)c2ccnc(N3CCNCC3)c2)ccc1C(F)(F)F` [Example 326, N-(6-(5-fluoro-2-methylphenyl)-5-(trifluoromethyl)pyridin-2-yl)-2-(piperazin-1-yl)pyridine-4-sulfonamide], at delF508-CFTR, the “MTECC24 CFHBEC- Amax %” value turned out to be 50.5% and the concentration giving a half-maximal response (EC50) is 203 nM. For the same compound, the Emax in experiment [1] (setting [2]) amounted to 103%. The concentration giving a half-maximal response (EC50) in experiment [1] (setting [3]) is 3810 nM.

As to `Cc1ccccc1-c1nc(NS(=O)(=O)c2cccc(N3CCC[C@@H](C(=O)O)C3)n2)ccc1C(F)(F)F` [Example 332, (3R)-1-(6-{[6-(2-methylphenyl)-5-(trifluoromethyl)pyridin-2-yl]sulfamoyl}pyridin-2-yl)piperidine-3-carboxylic Acid], at delF508-CFTR, the “MTECC24 CFHBEC- Amax %” value is 84.0% and the EC50 was 4.75 nM. Also, the Emax in experiment [1] (setting [2]) turned out to be 521%. In experiment [1] (setting [3]), the EC50 came out at 1110 nM.

`Cc1ccccc1-c1nc(NS(=O)(=O)c2cccc(N3CCC[C@H](C(=O)O)C3)n2)ccc1C(F)(F)F` [Example 333, (3S)-1-(6-{[6-(2-methylphenyl)-5-(trifluoromethyl)pyridin-2-yl]sulfamoyl}pyridin-2-yl)piperidine-3-carboxylic Acid]: on delF508-CFTR, the “MTECC24 CFHBEC- Amax %” value was 47.6% and the concentration for a half-maximal effect (EC50) stood at 7.9 nM. Also, the Emax in experiment [1] (setting [2]) came to 428%. In addition, the EC50 in experiment [1] (setting [3]) came to 1950 nM.

Regarding `Cc1ccccc1-c1nc(NS(=O)(=O)c2cccc(N3CCCC(C)(C(=O)O)C3)n2)ccc1C(F)(F)F` (centres unmarked) [Example 337, 3-methyl-1-(6-{[6-(2-methylphenyl)-5-(trifluoromethyl)pyridin-2-yl]sulfamoyl}pyridin-2-yl)piperidine-3-carboxylic Acid], on delF508-CFTR, the “MTECC24 CFHBEC- Amax %” value came to 51.5% and the 50% effective concentration (EC50) was 2.72 nM. Besides, the 50% effective concentration (EC50) in experiment [1] (setting [3]) was determined as 2250 nM.

With `Cc1ccccc1-c1nc(NS(=O)(=O)c2cccc(OC3CCC(C(=O)O)CC3)n2)ccc1C(F)(F)F` (centres unmarked) [Example 342, 4-((6-(N-(6-(o-tolyl)-5-(trifluoromethyl)pyridin-2-yl)sulfamoyl)pyridin-2-yl)oxy)cyclohexanecarboxylic Acid], at delF508-CFTR, the “MTECC24 CFHBEC- Amax %” value is on record as 85.8% and the EC50 is 80.2 nM. Besides, in experiment [1] (setting [2]), the Emax worked out at 266%. In addition, the EC50 in experiment [1] (setting [3]) worked out at 1900 nM.

Take `CC1(C(=O)O)CCN(c2cccc(S(=O)(=O)Nc3ccc(C(F)(F)F)c(-c4ccccc4N4CCOCC4)n3)n2)CC1` [Example 343, 4-methyl-1-(6-(N-(6-(2-morpholinophenyl)-5-(trifluoromethyl)pyridin-2-yl)sulfamoyl)pyridin-2-yl)piperidine-4-carboxylic Acid]: on delF508-CFTR, the “MTECC24 CFHBEC- Amax %” value is reported as 65.3% and the EC50 turned out to be 86.1 nM. For the same compound, the Emax in experiment [1] (setting [2]) was 197%. Moreover, in experiment [1] (setting [3]), the 50% effective concentration (EC50) came out at 2150 nM.

Consider `Cc1ccccc1-c1nc(NS(=O)(=O)c2cccc(N3CCC(C(=O)O)CC3)n2)ccc1C(F)(F)F` [Example 344, 1-(6-{[6-(2-methylphenyl)-5-(trifluoromethyl)pyridin-2-yl]sulfamoyl}pyridin-2-yl)piperidine-4-carboxylic Acid], for which, at delF508-CFTR, the “MTECC24 CFHBEC- Amax %” value was 46.7% and the concentration for a half-maximal effect (EC50) came out at 22.8 nM. In experiment [1] (setting [2]), the Emax worked out at 132%. The 50% effective concentration (EC50) in experiment [1] (setting [3]) amounted to 2810 nM.

With `Cc1ccccc1-c1nc(NS(=O)(=O)c2cccc(N3C4CCCC3CC(C(=O)O)C4)n2)ccc1C(F)(F)F` (centres unmarked) [Example 345, 9-(6-{[6-(2-methylphenyl)-5-(trifluoromethyl)pyridin-2-yl]sulfamoyl}pyridin-2-yl)-9-azabicyclo[3.3.1]nonane-3-carboxylic Acid], the “MTECC24 CFHBEC- Amax %” value on delF508-CFTR was determined as 90.4%. The EC50 at delF508-CFTR came out at 41.5 nM; in experiment [1], 1330 nM. Besides, in experiment [1] (CFBE41o-), the Emax worked out at 557%.

On to `CCCC1(C(=O)O)CCN(c2cccc(S(=O)(=O)Nc3ccc(C(F)(F)F)c(-c4ccccc4CC)n3)n2)CC1` [Example 351, 1-(6-{[6-(2-ethylphenyl)-5-(trifluoromethyl)pyridin-2-yl]sulfamoyl}pyridin-2-yl)-4-propylpiperidine-4-carboxylic Acid], for which, at delF508-CFTR, the “MTECC24 CFHBEC- Amax %” value is 99.7% and the EC50 came to 107 nM. Moreover, the Emax in experiment [1] (setting [2]) was determined as 492%. The EC50 in experiment [1] (setting [3]) came to 870 nM.

Consider `CCCC1(C(=O)O)CCCN(c2cccc(S(=O)(=O)Nc3ccc(C(F)(F)F)c(-c4ccccc4CC)n3)n2)C1` (centres unmarked) [Example 352, 1-(6-{[6-(2-ethylphenyl)-5-(trifluoromethyl)pyridin-2-yl]sulfamoyl}pyridin-2-yl)-3-propylpiperidine-3-carboxylic Acid], for which the “MTECC24 CFHBEC- Amax %” value at delF508-CFTR came to 82.2%. The EC50 on delF508-CFTR worked out at 0.808 nM; in experiment [1] (setting [3]) it was 699 nM. Moreover, in experiment [1] (setting [2]), the Emax came to 714%.

Regarding `Cc1ccccc1-c1nc(NS(=O)(=O)c2cccc(N[C@H]3C[C@@](C)(C(=O)O)C3)n2)ccc1C(F)(F)F` [Example 356, (1s,3s)-1-methyl-3-((6-(N-(6-(o-tolyl)-5-(trifluoromethyl)pyridin-2-yl)sulfamoyl)pyridin-2-yl)amino)cyclobutanecarboxylic Acid], on delF508-CFTR, the “MTECC24 CFHBEC- Amax %” value came out at 70.1% and the concentration giving a half-maximal response (EC50) stood at 7.49 nM. Besides, in experiment [1] (setting [2]), the “DelF508-CFTR-HRP Amax %” value came to 553.8%. Besides, the concentration for a half-maximal effect (EC50) in experiment [1] (setting [3]) is 1510 nM.

With `Cc1ccc(F)cc1-c1nc(NS(=O)(=O)c2cccc(N3CCC[C@@H](C(=O)O)C3)n2)ccc1C(F)(F)F` [Example 357, (3R)-1-(6-{[6-(5-fluoro-2-methylphenyl)-5-(trifluoromethyl)pyridin-2-yl]sulfamoyl}pyridin-2-yl)piperidine-3-carboxylic Acid], at delF508-CFTR, the “MTECC24 CFHBEC- Amax %” value was determined as 70.6%. Besides, the EC50 at delF508-CFTR came out at 38.5 nM; in experiment [1] (setting [3]) it was 2060 nM.

With `Cc1c(F)cccc1-c1nc(NS(=O)(=O)c2cccc(N3CCC[C@@H](C(=O)O)C3)n2)ccc1C(F)(F)F` [Example 358, (3R)-1-(6-{[6-(3-fluoro-2-methylphenyl)-5-(trifluoromethyl)pyridin-2-yl]sulfamoyl}pyridin-2-yl)piperidine-3-carboxylic Acid], on delF508-CFTR, the “MTECC24 CFHBEC- Amax %” value is given as 57.9%. Further, the EC50 on delF508-CFTR was 4.02 nM; in experiment [1] (setting [3]), 2320 nM. Further, in experiment [1] (setting [2]), the Emax was determined as 869%.

As for `Cc1ccc(F)cc1-c1nc(NS(=O)(=O)c2cccc(N3CCC[C@H](C(=O)O)C3)n2)ccc1C(F)(F)F` [Example 359, (3S)-1-(6-{[6-(5-fluoro-2-methylphenyl)-5-(trifluoromethyl)pyridin-2-yl]sulfamoyl}pyridin-2-yl)piperidine-3-carboxylic Acid], on delF508-CFTR, the “MTECC24 CFHBEC- Amax %” value was 86.7% and the half-maximal effective concentration (EC50) came to 2.04 nM. For the same compound, the Emax in experiment [1] (setting [2]) was found to be 648%. For the same compound, the EC50 in experiment [1] (setting [3]) amounted to 1960 nM.

`Cc1c(F)cccc1-c1nc(NS(=O)(=O)c2cccc(N3CCC[C@H](C(=O)O)C3)n2)ccc1C(F)(F)F` [Example 360, (3S)-1-(6-{[6-(3-fluoro-2-methylphenyl)-5-(trifluoromethyl)pyridin-2-yl]sulfamoyl}pyridin-2-yl)piperidine-3-carboxylic Acid]: on delF508-CFTR, the “MTECC24 CFHBEC- Amax %” value is reported as 57.5% and the EC50 was 47.4 nM. Further, the Emax in experiment [1] (setting [2]) is 546%. In experiment [1] (setting [3]), the half-maximal effective concentration (EC50) came to 2110 nM.
